Values of other authors as cited in patent US20210137911A1, “NOVEL CHRONOTHERAPY BASED ON CIRCADIAN RHYTHMS” (THE TRUSTEES OF THE UNIVERSITY OF PENNSYLVANIA, priority 2014, published 2021).
Where two headings read alike, the source gives them in different places.

Settings: cited from earlier work
[1] = half-life of therapeutic compound as listed in Table 1

CC(=O)O[C@H]1C[C@@H]2CC[C@@H]3[C@H](CC[C@@]4(C)[C@H]3C[C@H]([N+]3(C)CCCCC3)[C@@H]4OC(C)=O)[C@@]2(C)C[C@@H]1[N+]1(C)CCCCC1 [Pancuronium]
½ Life (in vivo): 1.5 h

COc1ccnc(C[S+]([O-])c2nc3ccc(OC(F)F)cc3[nH]2)c1OC (stereo not shown) [Pantoprazole]
½ Life [1]: 1 h

COc1ccc(Cc2nccc3cc(OC)c(OC)cc23)cc1OC [Papaverine]
½ Life (in vivo): 0.5 h

C[C@H](/C=C/[C@H](C)C(C)(C)O)[C@H]1CC[C@H]2/C(=C/C=C3C[C@@H](O)C[C@H](O)C3)CCC[C@]12C [Paricalcitol]
½ Life [1]: 4 h

Nc1nc2[nH]cc(CCc3ccc(C(=O)N[C@@H](CCC(=O)O)C(=O)O)cc3)c2c(=O)[nH]1 [Pemetrexed]
½ Life [1]: 3.5 h

CSCC[C@H](NC(=O)[C@H](Cc1c[nH]c2ccccc12)NC(=O)CCNC(=O)OC(C)(C)C)C(=O)N[C@@H](CC(=O)O)C(=O)N[C@@H](Cc1ccccc1)C(N)=O [Pentagastrin]
½ Life (in vivo): 0.166 h

CCCC(C)C1(CC)C(=O)NC(=O)NC1=O (stereo not shown) [Pentobarbital]
½ Life (in vivo): 5 h

OC[C@H]1O[C@@H](n2cnc3c2NC=NC[C@H]3O)C[C@@H]1O [Pentostatin]
½ Life [1]: 5.7 h

C1CCC(C(CC2CCCCN2)C2CCCCC2)CC1 (stereo not shown) [Perhexiline]
½ Life [1]: 2 h

CCC[C@H](N[C@@H](C)C(=O)N1[C@H](C(=O)O)C[C@@H]2CCCC[C@@H]21)C(=O)OCC [Perindopril]
½ Life [1]: 1.2 h

CCOC(=O)C1(c2ccccc2)CCN(C)CC1 [Pethidine]
½ Life (in vivo): 1 h

NNCCc1ccccc1 [Phenelzine]
½ Life [1]: 1.2 h

O=C1c2ccccc2C(=O)C1c1ccccc1 [Phenindione]
½ Life [1]: 5 h

CNC[C@H](O)c1cccc(O)c1 [Phenylephrine]
½ Life [1]: 2.1 h

CC(N)C(O)c1ccccc1 (stereo not shown) [Phenylpropanolamine]
½ Life (in vivo): 2.1 h

CC[C@@H]1C(=O)OC[C@@H]1Cc1cncn1C [Pilocarpine]
½ Life [1]: 0.76 h

CC(C)NCC(O)COc1cccc2[nH]ccc12 (stereo not shown) [Pindolol]
½ Life [1]: 3 h

CCc1ccc(CCOc2ccc(CC3SC(=O)NC3=O)cc2)nc1 (stereo not shown) [Pioglitazone]
½ Life [1]: 3 h

Cc1ccc(=O)n(-c2ccccc2)c1 [Pirfenidone]
½ Life [1]: 2 h

c1cc(CN2CCCNCCNCCCNCC2)ccc1CN1CCCNCCNCCCNCC1 [Plerixafor]
½ Life [1]: 4.4 h

COc1cc([C@@H]2c3cc4c(cc3[C@H](O)[C@H]3COC(=O)[C@H]23)OCO4)cc(OC)c1OC [Podofilox]
½ Life [1]: 1 h

C[n+]1ccccc1/C=N/O [Pralidoxime]
½ Life [1]: 1.233 h

CC[C@H](C)[C@H](NC(=O)[C@@H]1CCCN1C(=O)CNC(=O)[C@H](Cc1ccccc1)NC(=O)[C@H](CC(N)=O)NC(=O)[C@H](CC(N)=O)NC(=O)[C@H](CO)NC(=O)[C@H](CO)NC(=O)[C@H](Cc1c[nH]cn1)NC(=O)[C@@H](NC(=O)[C@H](CC(C)C)NC(=O)[C@H](Cc1ccccc1)NC(=O)[C@H](CC(N)=O)NC(=O)[C@H](C)NC(=O)[C@H](CC(C)C)NC(=O)[C@H](CCCNC(=N)N)NC(=O)[C@H](CCC(N)=O)NC(=O)[C@@H](NC(=O)[C@H](C)NC(=O)[C@@H]1CSSC[C@H](NC(=O)[C@@H](N)CCCCN)C(=O)N[C@@H](CC(N)=O)C(=O)N[C@@H]([C@@H](C)O)C(=O)N[C@@H](C)C(=O)N[C@@H]([C@@H](C)O)C(=O)N1)[C@@H](C)O)C(C)C)C(=O)N[C@@H](CC(C)C)C(=O)N1CCC[C@H]1C(=O)N1CCC[C@H]1C(=O)N[C@H](C(=O)N[C@@H](CC(N)=O)C(=O)N[C@H](C(=O)NCC(=O)N[C@@H](CO)C(=O)N[C@@H](CC(N)=O)C(=O)N[C@H](C(=O)N[C@@H](Cc1ccc(O)cc1)C(N)=O)[C@@H](C)O)C(C)C)[C@@H](C)O [Pramlintide]
½ Life (in vivo): 0.8 h

C[C@]12C=CC(=O)C=C1CC[C@@H]1[C@@H]2[C@@H](O)C[C@@]2(C)[C@H]1CC[C@]2(O)C(=O)CO [Prednisolone]
½ Life (in vivo): 2 h

COc1cc(NC(C)CCCN)c2ncccc2c1 (stereo not shown) [Primaquine]
½ Life [1]: 3.7 h

CCC1(c2ccccc2)C(=O)NCNC1=O [Primidone]
½ Life [1]: 3 h

CCN(CC)CCOC(=O)c1ccc(N)cc1 [Procaine]
½ Life [1]: 0.1283 h

NC(=O)CCC/N=C(\c1ccc(Cl)cc1)c1cc(F)ccc1O [Progabide]
½ Life [1]: 4 h

CC(C)c1cccc(C(C)C)c1O [Propofol]
½ Life (in vivo): 1 h

CCCc1cc(=O)[nH]c(=S)[nH]1 [Propylthiouracil]
½ Life (in vivo): 2 h

CN(C)C(=O)Oc1ccc[n+](C)c1 [Pyridostigmine]
½ Life (in vivo): 3 h

CCOC(=O)[C@H](CCc1ccccc1)N[C@@H](C)C(=O)N1Cc2ccccc2C[C@H]1C(=O)O [Quinapril]
½ Life (in vivo): 2 h

COCCCOc1ccnc(C[S+]([O-])c2nc3ccccc3[nH]2)c1C (stereo not shown) [Rabeprazole]
½ Life (in vivo): 1 h

CCC(=O)NCC[C@@H]1CCc2ccc3c(c21)CCO3 [Ramelteon]
½ Life (in vivo): 1 h

CCOC(=O)[C@H](CCc1ccccc1)N[C@@H](C)C(=O)N1[C@H](C(=O)O)C[C@@H]2CCC[C@@H]21 [Ramipril, reference compound]
½ Life (in vivo): 2 h
minimum reported half-life (see Table 1): 2 h

C#CCN[C@@H]1CCc2ccccc21 [Rasagiline]
½ Life (in vivo): 3 h

CNC(=O)c1cnn(-c2nc(N)c3ncn([C@@H]4O[C@H](CO)[C@@H](O)[C@H]4O)c3n2)c1 [Regadenoson]
½ Life (in vivo): 0.033 h

CCOc1cc(CC(=O)N[C@@H](CC(C)C)c2ccccc2N2CCCCC2)ccc1C(=O)O [Repaglinide]
½ Life (in vivo): 1 h

O=P(O)(O)C(O)(Cc1cccnc1)P(=O)(O)O [Risedronate]
½ Life (in vivo): 1.5 h

CC(NCCc1ccc(O)cc1)C(O)c1ccc(O)cc1 (stereo not shown) [Ritodrine]
½ Life (in vivo): 1.7 h

CCN(C)C(=O)Oc1cccc([C@H](C)N(C)C)c1 [Rivastigmine]
½ Life (in vivo): 1.5 h

CN(C)CCc1c[nH]c2ccc(Cn3cncn3)cc12 [Rizatriptan]
½ Life (in vivo): 2 h

C=CC[N+]1([C@H]2C[C@H]3[C@@H]4CC[C@H]5C[C@H](O)[C@@H](N6CCOCC6)C[C@]5(C)[C@H]4CC[C@]3(C)[C@H]2OC(C)=O)CCCC1 [Rocuronium]
½ Life (in vivo): 1 h

CN(CCOc1ccc(CC2SC(=O)NC2=O)cc1)c1ccccn1 (stereo not shown) [Rosiglitazone]
½ Life (in vivo): 3 h

CCCN(CCc1cccs1)[C@H]1CCc2c(O)cccc2C1 [Rotigotine]
½ Life (in vivo): 5 h

CCCCP(=O)(O)CCCN [SGS742]
½ Life (in vivo): 4 h

OCc1cc(C(O)CNCCCCCCOCCCCc2ccccc2)ccc1O (stereo not shown) [Salmeterol]
½ Life (in vivo): 5.5 h

O=C(Oc1ccccc1C(=O)O)c1ccccc1O [Salsalate]
½ Life (in vivo): 1 h

C#CCN(C)[C@H](C)Cc1ccccc1 [Selegiline]
½ Life (in vivo): 1.2 h

CC(C)CC(N(C)C)C1(c2ccc(Cl)cc2)CCC1 (stereo not shown) [Sibutramine]
½ Life (in vivo): 1.1 h

CCC(C)(C)C(=O)O[C@H]1C[C@@H](C)C=C2C=C[C@H](C)[C@H](CC[C@@H]3C[C@@H](O)CC(=O)O3)[C@H]21 [Simvastatin, reference compound]
half-life (see Table 1): less than three

CC(=O)S[C@@H]1CC2=CC(=O)CC[C@]2(C)[C@H]2CC[C@@]3(C)[C@@H](CC[C@@]34CCC(=O)O4)[C@H]12 [Spironolactone]
½ Life (in vivo): 0.166 h

CCC1=C(C)c2cc3[n-]c(cc4[n-]c(cc5nc(cc1n2)C(C)=C5CC)c(C)c4CCC(=O)O)c(CCC(=O)O)c3C.[Cl-].[Cl-].[Sn+4] [Stannsoporfin]
½ Life (in vivo): 3.8 h

CN(N=O)C(=O)N[C@@H](C=O)[C@@H](O)[C@H](O)[C@H](O)CO [Streptozocin]
½ Life (in vivo): 0.0833 h

O=C1C(CC[S+]([O-])c2ccccc2)C(=O)N(c2ccccc2)N1c1ccccc1 (stereo not shown) [Sulfinpyrazone]
½ Life (in vivo): 4 h

CNS(=O)(=O)Cc1ccc2[nH]cc(CCN(C)C)c2c1 [Sumatriptan]
½ Life (in vivo): 2.5 h

Nc1c2c(nc3ccccc13)CCCC2 [Tacrine]
½ Life (in vivo): 2 h

CC(=O)N1N=C(c2ccc(N)cc2)c2cc3c(cc2C[C@H]1C)OCO3 [Talampanel]
½ Life (in vivo): 3 h

CCOc1ccccc1OCCN[C@H](C)Cc1ccc(OC)c(S(N)(=O)=O)c1 [Tamsulosin]
½ Life (in vivo): 5 h

CC[C@@H](c1cccc(O)c1)[C@@H](C)CN(C)C [Tapentadol]
½ Life (in vivo): 4 h

COc1cc([C@@H]2c3cc4c(cc3[C@@H](O[C@@H]3O[C@@H]5CO[C@@H](c6cccs6)O[C@H]5[C@H](O)[C@H]3O)[C@H]3COC(=O)[C@H]23)OCO4)cc(OC)c1O [Teniposide]
½ Life (in vivo): 5 h

CC(C)(C)NCC(O)c1cc(O)cc(O)c1 (stereo not shown) [Terbutaline]
½ Life (in vivo): 5.5 h

C[C@]12CC[C@H]3[C@@H](CCC4=CC(=O)CC[C@@]43C)[C@@H]1CC[C@@H]2O [Testosterone]
½ Life (in vivo): 0.166 h

O=C1CCC(N2C(=O)c3ccccc3C2=O)C(=O)N1 (stereo not shown) [Thalidomide]
½ Life (in vivo): 5 h

CCCC(C)C1(CC)C(=O)NC(=S)NC1=O (stereo not shown) [Thiopental]
½ Life (in vivo): 3 h

CC(C(=O)O)c1ccc(C(=O)c2ccccc2)s1 (stereo not shown) [Tiaprofenic acid]
½ Life (in vivo): 1.5 h

CC(C)(C)NC[C@H](O)COc1nsnc1N1CCOCC1 [Timolol]
½ Life (in vivo): 2.5 h

CCCCS(=O)(=O)N[C@@H](Cc1ccc(OCCCCC2CCNCC2)cc1)C(=O)O [Tirofiban]
½ Life (in vivo): 2 h

Clc1ccc2nsnc2c1NC1=NCCN1 [Tizanidine]
½ Life (in vivo): 2.5 h

Cc1ccc(C(=O)c2ccc(CC(=O)O)n2C)cc1 [Tolmetin]
½ Life (in vivo): 2 h

CC[C@@]1(O)C(=O)OCc2c1cc1n(c2=O)Cc2cc3c(CN(C)C)c(O)ccc3nc2-1 [Topotecan]
½ Life (in vivo): 2 h

CC(C)OC(=O)CCC/C=C\C[C@@H]1[C@@H](/C=C/[C@@H](O)COc2cccc(C(F)(F)F)c2)[C@H](O)C[C@@H]1O [Travoprost]
½ Life (in vivo): 0.75 h

O=c1n(CCCN2CCN(c3cccc(Cl)c3)CC2)nc2ccccn12 [Trazodone]
½ Life (in vivo): 1 h

CCCCC[C@H](O)CC[C@@H]1[C@H]2Cc3cccc(OCC(=O)O)c3C[C@H]2C[C@H]1O [Treprostinil]
½ Life (in vivo): 2 h

CC1=C(/C=C/C(C)=C/C=C/C(C)=C/C(=O)O)C(C)(C)CCC1 [Tretinoin]
½ Life (in vivo): 0.5 h
